Laboratory results as given in US11000033B2, “Ketone or oxime compound, and herbicide” (NISSAN CHEMICAL CORPORATION, priority 2014, dated 2021).

Tests used:
Type in all cases: in vivo
Amaranthus retroflexus = assay: Test Example 5: herbicidal effect by foliage application, plastic box (symbol N); conditions: 320 g/ha, 3 weeks after application
Summary of the method: (§1)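 Post-emergence spray; diluvial soil (sterilized), ~1.5 cm seed cover; greenhouse 25–30° C; 14-day-old plants; water-diluted emulsion at predetermined dose; visual score at 3 wk post-treatment.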

Alopecurus myosuroides = assay: Test Example 5: herbicidal effect by foliage application, plastic box (symbol J); conditions: 320 g/ha, 3 weeks after application
Summary of the method: as §1

corn = assay: Test Example 5: effect on crop by foliage application, plastic box (symbol c); conditions: 320 g/ha, 3 weeks after application
Summary of the method: (§2)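 Greenhouse test at 25° C. to 30° C. Seeds of crops and weeds were spot-sown in boxes of sterilized diluvial soil under roughly 1.5 cm soil cover, then grown for foliage treatment.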

[1] = system: Echinochloa oryzacola Vasing.; assay: Test Example 1: herbicidal activity, application before weed generation in submerged conditions (symbol A); conditions: application herbicide amount 320 g/ha
Summary of the method: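 Pre-emergence, paddy conditions: emulsifiable formulation diluted in water, dosed onto floodwater (4 cm depth) on sowing day. Alluvial soil; weeds sown mixed; rice transplanted at 2.5-leaf stage. Greenhouse 25–30 °C, 3 wk. Score 0–5 (5 = ≥90% kill, 0 = ≤5%).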

wheat [2] = assay: Test Example 4: effect on crop by soil treatment (symbol e); conditions: application herbicide amount 320 g/ha
Summary of the method: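 Plants are raised in a greenhouse (25° C. to 30° C.) from spot-sown seed, which sits under about 1.5 cm of sterilized diluvial soil in a box shared with weed species.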

transplanted rice plant = assay: Test Example 1: effect on crop, application before weed generation in submerged conditions (symbol a); conditions: application herbicide amount 320 g/ha
Summary of the method: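 Rice at 2.5 leaf stage transplanted into submerged soil (4 cm depth) sown with three weed species; herbicide applied before weed emergence.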

wheat [3] = assay: Test Example 5: effect on crop by foliage application, plastic box (symbol e); conditions: 320 g/ha, 3 weeks after application
Summary of the method: as §2

[4] = system: directly sowed rice plant; assay: Test Example 3: effect on crop by foliage application, Wagner pot (symbol b); conditions: application herbicide amount 320 g/ha, Table 24
Summary of the method: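 Wagner pot (1/10000 are), alluvial soil, submerged 0.1–0.5 cm; sown E. crus-galli var. crus-galli, L. chinensis, C. difformis, rice; greenhouse 25–30 °C.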

Stellaria media = assay: Test Example 5: herbicidal effect by foliage application, plastic box (symbol P); conditions: 320 g/ha, 3 weeks after application
Summary of the method: as §1

beet = assay: Test Example 5: effect on crop by foliage application, plastic box (symbol f); conditions: 320 g/ha, 3 weeks after application
Summary of the method: as §2

rice plant = assay: Test Example 5: effect on crop by foliage application, plastic box (symbol b); conditions: 320 g/ha, 3 weeks after application
Summary of the method: as §2

[5] = system: Echinochloa crus-galli var. crus-galli; assay: Test Example 3: herbicidal effect by foliage application, Wagner pot (symbol H); conditions: application herbicide amount 320 g/ha, Table 24
Summary of the method: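 Foliar spray of a water-diluted emulsion at a predetermined herbicide amount, applied to 14-day-old plants. Seedlings were raised in flooded alluvial soil (0.1–0.5 cm water) at 25–30 °C in a greenhouse. Injury was rated after 3 weeks against fixed criteria.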

Scirpus juncoides = assay: Test Example 2: herbicidal activity, application during weed generation in submerged conditions (symbol B); conditions: Table 23; application herbicide amount 320 g/ha; grade 0-5 by criteria of Test Example 1
Summary of the method: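 Scoring of herbicidal effect took place 3 weeks after treatment, using the criteria of the earlier test. Treatment was water-surface application of diluted emulsifiable compound at a set dose. Plants were at one- to two-leaf stage in submerged alluvial soil (4 cm depth), greenhouse 25-30° C.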

Row | Structure (SMILES) | N: Amaranthus retroflexus, herbicidal effect grade (Amaranthus retroflexus) | J: Alopecurus myosuroides, herbicidal effect grade (Alopecurus myosuroides) | c: corn, effect on crop grade (corn) | Herbicidal effect grade, A: Echinochloa oryzacola Vasing. [1] | Effect on crop grade, e: wheat (wheat [2]) | Effect grade on crop, a: transplanted rice plant (transplanted rice plant) | e: wheat, effect on crop grade (wheat [3]) | b (directly sowed rice plant) effect on crop grade [4] | P: Stellaria media, herbicidal effect grade (Stellaria media) | f: beet, effect on crop grade (beet) | b: directly sowed rice plant, effect on crop grade (rice plant) | H (Echinochloa crus-galli var. crus-galli) herbicidal effect grade [5] | Herbicidal effect grade, B: Scirpus juncoides (Scirpus juncoides)
1 | CON=C(CC1CC(O)=C(c2c(C)cc(Br)cc2C)C1=O)C(C)C (stereo not shown) [9-001] | 0 (Herbicidal ratio of 5% or lower (almost no effect)) | 3 (Herbicidal ratio of 40% or higher and lower than 70%) | 4 (Herbicidal ratio of 70% or higher and lower than 90%) | 4 (Herbicidal ratio of 70% or higher and lower than 90%) | 0 (Herbicidal ratio of 5% or lower (almost no effect)) | 4 (Herbicidal ratio of 70% or higher and lower than 90%) | 0 (Herbicidal ratio of 5% or lower (almost no effect)) | 5 (Herbicidal ratio of 90% or more (almost completely withered)) | 0 (Herbicidal ratio of 5% or lower (almost no effect)) | 0 (Herbicidal ratio of 5% or lower (almost no effect)) | 3 (Herbicidal ratio of 40% or higher and lower than 70%) | 5 (Herbicidal ratio of 90% or more (almost completely withered)) | 0 (Herbicidal ratio of 5% or lower (almost no effect))
2 | CON=C(CC1CC(O)=C(c2c(C)cc(Br)cc2C)C1=O)C1CC1 (stereo not shown) [9-002] | 3 (Herbicidal ratio of 40% or higher and lower than 70%) | 5 (Herbicidal ratio of 90% or more (almost completely withered)) | 5 (Herbicidal ratio of 90% or more (almost completely withered)) | 5 (Herbicidal ratio of 90% or more (almost completely withered)) | 0 (Herbicidal ratio of 5% or lower (almost no effect)) | 5 (Herbicidal ratio of 90% or more (almost completely withered)) | 3 (Herbicidal ratio of 40% or higher and lower than 70%) | 5 (Herbicidal ratio of 90% or more (almost completely withered)) | 0 (Herbicidal ratio of 5% or lower (almost no effect)) | 0 (Herbicidal ratio of 5% or lower (almost no effect)) | 5 (Herbicidal ratio of 90% or more (almost completely withered)) | 5 (Herbicidal ratio of 90% or more (almost completely withered)) | 0 (Herbicidal ratio of 5% or lower (almost no effect))
3 | CC#Cc1cc(C)c(C2=C(OC(=O)COc3ccccc3)CC(CC(=NOC)C(C)C)C2=O)c(C)c1 (stereo not shown) [9-003] | 0 (Herbicidal ratio of 5% or lower (almost no effect)) | 5 (Herbicidal ratio of 90% or more (almost completely withered)) | 5 (Herbicidal ratio of 90% or more (almost completely withered)) | 5 (Herbicidal ratio of 90% or more (almost completely withered)) | 4 (Herbicidal ratio of 70% or higher and lower than 90%) | 5 (Herbicidal ratio of 90% or more (almost completely withered)) | 4 (Herbicidal ratio of 70% or higher and lower than 90%) | 5 (Herbicidal ratio of 90% or more (almost completely withered)) | 3 (Herbicidal ratio of 40% or higher and lower than 70%) | 1 (Herbicidal ratio of 5% or higher and lower than 20%) | 5 (Herbicidal ratio of 90% or more (almost completely withered)) | 5 (Herbicidal ratio of 90% or more (almost completely withered)) | 4 (Herbicidal ratio of 70% or higher and lower than 90%)
4 | CON=C(CC1CC(O)=C(c2c(C)cc(C#C[Si](C)(C)C)cc2C)C1=O)C(C)C (stereo not shown) [9-005] | 0 (Herbicidal ratio of 5% or lower (almost no effect)) | 4 (Herbicidal ratio of 70% or higher and lower than 90%) | 3 (Herbicidal ratio of 40% or higher and lower than 70%) | 4 (Herbicidal ratio of 70% or higher and lower than 90%) | 0 (Herbicidal ratio of 5% or lower (almost no effect)) | 4 (Herbicidal ratio of 70% or higher and lower than 90%) | 0 (Herbicidal ratio of 5% or lower (almost no effect)) | 4 (Herbicidal ratio of 70% or higher and lower than 90%) | 0 (Herbicidal ratio of 5% or lower (almost no effect)) | 0 (Herbicidal ratio of 5% or lower (almost no effect)) | 4 (Herbicidal ratio of 70% or higher and lower than 90%) | 5 (Herbicidal ratio of 90% or more (almost completely withered)) | 0 (Herbicidal ratio of 5% or lower (almost no effect))
